Here are results for one molecule from PMC10300155, “Inhibition of TRPV4 remodels single cell polarity and suppresses the metastasis of hepatocellular carcinoma” (Cell Death & Disease, 2023).

Broadly, the Kd is the concentration at which binding is half-saturated.

The target of assay [1] is T1, TRPV4 (native, MHCC-97H cells) (Homo sapiens, UniProt Q9HBA0).
T1 construct: endogenous channel in human hepatocellular carcinoma MHCC-97H cells
In words: Fluo-4 AM calcium influx, flow cytometry. It counts as cell-based. The following applies: inhibitor; 0.5 h pre-treatment; agonist GSK1016790A; adherent MHCC-97H cells. On the technique in general: Flow cytometry measures light scatter and fluorescence of single cells or particles in a stream.

The target in assay [2] is T2, TRPV4 (purified, fluorescently labeled) (Homo sapiens, UniProt Q9HBA0).
T2 construct: purified protein, fluorescently labeled for MST
Briefly: microscale thermophoresis (Monolith NT.[…]). It is filed as binding. (Microscale thermophoresis detects binding through changes in fluorescence in a small temperature gradient.)

T2 sequence (Q9HBA0 whole entry): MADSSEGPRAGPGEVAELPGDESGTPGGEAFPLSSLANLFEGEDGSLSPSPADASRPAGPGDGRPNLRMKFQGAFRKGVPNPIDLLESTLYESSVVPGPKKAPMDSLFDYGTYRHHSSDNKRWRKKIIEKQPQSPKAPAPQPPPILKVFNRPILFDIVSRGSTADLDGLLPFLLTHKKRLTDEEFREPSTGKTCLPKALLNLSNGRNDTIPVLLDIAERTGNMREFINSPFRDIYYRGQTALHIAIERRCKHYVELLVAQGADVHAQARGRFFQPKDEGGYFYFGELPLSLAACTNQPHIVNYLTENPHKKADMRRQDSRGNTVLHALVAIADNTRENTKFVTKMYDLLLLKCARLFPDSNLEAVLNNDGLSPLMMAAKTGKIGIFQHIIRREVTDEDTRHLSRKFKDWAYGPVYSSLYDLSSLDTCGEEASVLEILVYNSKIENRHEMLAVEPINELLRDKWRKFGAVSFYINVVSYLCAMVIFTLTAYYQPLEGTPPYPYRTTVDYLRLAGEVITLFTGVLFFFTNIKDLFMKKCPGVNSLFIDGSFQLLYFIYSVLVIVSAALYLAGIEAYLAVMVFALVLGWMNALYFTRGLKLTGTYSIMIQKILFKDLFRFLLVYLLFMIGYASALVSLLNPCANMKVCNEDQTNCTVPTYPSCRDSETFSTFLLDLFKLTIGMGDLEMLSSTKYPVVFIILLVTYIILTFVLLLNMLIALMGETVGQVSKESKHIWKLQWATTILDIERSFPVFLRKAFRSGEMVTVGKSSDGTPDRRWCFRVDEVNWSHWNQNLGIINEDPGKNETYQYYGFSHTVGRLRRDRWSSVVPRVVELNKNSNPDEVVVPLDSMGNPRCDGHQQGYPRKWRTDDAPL
T1 sequence (Q9HBA0 whole entry): as above

In the case of `COc1c(OCCCCN2CCCC2)cc(O)c2c(=O)cc(-c3ccccc3)oc12` [GL-V9, 5-hydroxy-8-methoxy-2-phenyl-7-(4-(pyrro-lidin-1-yl)butoxy)4H-chromen-4-one], the “Fluo-4 AM calcium influx, flow cytometry” value in assay [1] is listed as “substantially reduced the calcium influx brought on by GSK1016790A”. For the same molecule, the Kd in assay [2] was determined as 0.106 µM.
